{
  "source": "patent US20080020932A1",
  "about": "“Method for Combating Weeds” (Bayer Cropscience AG, priority 2004, published 2008)",
  "system": "Apera spica-venti",
  "experiment": "Postemergence field trials in winter wheat: herbicidal activity",
  "type": "in vivo",
  "settings": "field trials carried out",
  "procedure": "The compound of the formula (I) was tested under field conditions in Winter wheat in Germany and Poland against the economically significant weed Apera spica-venti. The plot trials were instituted on cultivated land used agriculturally, and the conditions of cultivation and climate can be regarded as being representative over the period under investigation. Areas with a particularly high weed population were selected preferentially.\nThe active ingredient was applied postemergence (spring) across the area by spraying with a medium droplet size. An appropriate preparation of active ingredient was produced by formulating the active ingredient as a 10 WP (10% w/w water-dispersible powder), mixed with the safener mefenpyr-diethyl as a 15 WG (15% w/w water-dispersible granules) and with alkyl ether sulfates as an additive, and applied with customary amounts of water.\nFor the assessment of crop tolerance, instances of plant growth inhibition or lightening of the leaf area were rated in % damage in comparison to the development of the untreated control, 1 to 7 weeks after treatment. The herbicidal activity was assessed at a number of times after treatment, based on the development of weeds, as a % reduction in comparison to the untreated control. For these purposes: • 0%=no damage to crop or no herbicidal action; • 100%=total destruction of the crop or of the weeds, respectively.",
  "data": [
    {"smiles": "COC(=O)c1csc(C)c1S(=O)(=O)NC(=O)n1nc(OC)n(C)c1=O", "note": "[compound of the formula (I), 5-methoxy-4-methyl-2-[(4-methoxycarbonyl-2-methylthien-3-yl)sulfonylaminocarbonyl]-2,4-dihydro-3H-1,2,4-triazol-3-one]", "values": [
      {"measurement": "control of the annual varieties of Apera spica-venti in cereals (in words)", "value": "particularly effective"}
    ]}
  ]
}
